Measured values reported in patent US10814115B2, “Microneedle devices and uses thereof” (MASSACHUSETTS INSTITUTE OF TECHNOLOGY, priority 2011, dated 2020).
Read-outs that look alike come from different tables or passages of the source.

How the values were obtained:
[1] = cited from earlier work
[2] = Visualization study: dye injection into 1.5% porcine gelatin with the microneedle prototype device; conditions: 0.025% dye
Description: Using porcine gelatin, the effects of a microneedle prototype device was evaluated. Specifically, porcine gelatin was prepared at a concentration of 1.5% to mimic the density of gastrointestinal tissue. The gelatin provided the added benefit of allowing the application site to be visualized. A prototype device filled with a solution of 0.025% allura red dye was applied to the gel and a volume of 100-300 microliters of dye was injected. A second device lacking the needles was also used as a control.
This highlights the efficacy of the microneedle device in deeper tissue penetration of the model drug compared to simple diffusion (simulated by the control device shown in FIGS. 10 A and B).

Yorkshire swine [3] = conditions: 100 units in 10 ml saline enema
Description: In order to evaluate the efficacy of abrasion and drug delivery a Yorkshire swine animal 70 kg in weight was fasted overnight. The animal was sedated and a central venous line was placed for frequent blood sampling. The rectum was cleansed with a tap water enema and an abrasion created in the rectal mucosa.

Yorkshire swine [4] = test system: Yorkshire swine
Description: Yorkshire swine approximately 70 kg in weight were fasted overnight. The animal was sedated and a femoral venous catheter placed to enable frequent blood sampling for glucose monitoring. An endoscope was introduced orally or rectally depending on the tissue being accessed. Oral access for the stomach and small intestine and rectal access for the colon.
Glucose levels were monitored by frequent blood sampling via the femoral venous catheter with the aid of a glucometer.
This was administered with the use of a Carr-Locke needle which is 500 μm in length and 514 μm in diameter. Frequent blood glucose monitoring was performed via the use of a central line (femoral venous catheter).
To further validate the delivery of biologics at different segment we further evaluated the use of microinjection in the duodenum (the first part of the small intestine). Here the pH ranges from 5.5-7 and there are a broader range of proteases.
This was again administered with the use of the Carr-Locke needle. Frequent blood glucose monitoring was performed via the use of a central line (femoral venous catheter).
This was administered with the use of the microneedle prototype shown previously. Frequent blood glucose monitoring was performed via the use of a central line (femoral venous catheter).

## CCCC1O[C@@H]2C[C@H]3[C@@H]4CCC5=CC(=O)C=C[C@]5(C)[C@H]4[C@@H](O)C[C@]3(C)[C@]2(C(=O)CO)O1 (some centres unmarked) [Budesonide]
[1]; in vivo
  Known Toxic Levels: 3200 mg/kg

## CC[C@H](C)[C@@H]1NC(=O)[C@H](Cc2ccc(O)cc2)NC(=O)[C@@H](N)CSSC[C@@H](C(=O)N2CCC[C@H]2C(=O)N[C@@H](CC(C)C)C(=O)NCC(N)=O)NC(=O)[C@H](CC(N)=O)NC(=O)[C@H](CCC(N)=O)NC1=O [Oxytocin]
[1]; in vivo
  Known Toxic Levels: >10,000 units/kg

## CC[C@H](C)[C@H](NC(=O)[C@@H]1CCCN1C(=O)CNC(=O)[C@H](Cc1ccccc1)NC(=O)[C@H](CC(N)=O)NC(=O)[C@H](CC(N)=O)NC(=O)[C@H](CO)NC(=O)[C@H](CO)NC(=O)[C@H](Cc1c[nH]cn1)NC(=O)[C@@H](NC(=O)[C@H](CC(C)C)NC(=O)[C@H](Cc1ccccc1)NC(=O)[C@H](CC(N)=O)NC(=O)[C@H](C)NC(=O)[C@H](CC(C)C)NC(=O)[C@H](CCCNC(=N)N)NC(=O)[C@H](CCC(N)=O)NC(=O)[C@@H](NC(=O)[C@H](C)NC(=O)[C@@H]1CSSC[C@H](NC(=O)[C@@H](N)CCCCN)C(=O)N[C@@H](CC(N)=O)C(=O)N[C@@H]([C@@H](C)O)C(=O)N[C@@H](C)C(=O)N[C@@H]([C@@H](C)O)C(=O)N1)[C@@H](C)O)C(C)C)C(=O)N[C@@H](CC(C)C)C(=O)N1CCC[C@H]1C(=O)N1CCC[C@H]1C(=O)N[C@H](C(=O)N[C@@H](CC(N)=O)C(=O)N[C@H](C(=O)NCC(=O)N[C@@H](CO)C(=O)N[C@@H](CC(N)=O)C(=O)N[C@H](C(=O)N[C@@H](Cc1ccc(O)cc1)C(N)=O)[C@@H](C)O)C(C)C)[C@@H](C)O [Pramlintide]
[1]; in vivo
  Known Toxic Levels: >600 µg/kg/day

## COc1cc(S(=O)(=O)[O-])c(C)cc1N=Nc1c(O)ccc2cc(S(=O)(=O)[O-])ccc12.[Na+].[Na+] [allura red dye, allura red]
[2]; control device lacking needles
  Permeation of dye into gel matrix: expulsion of the dye over the gel surface
[2]; device with microneedles, 100-300 microliters
  Permeation of dye into gel matrix: enabled permeation of the dye into the gel matrix

## Erythropoietin
[1]; in vivo
  Known Toxic Levels: >100,000 units

## Etanercept
[1]; in vivo
  Known Toxic Levels: >1000 mg/animal

## Infliximab
[1]; no direct toxic effect observed
  Known Toxic Levels: >20 mg/kg no

## Rituximab
[1]; in vivo
  Known Toxic Levels: >5 g/animal

## insulin aspart
Yorkshire swine [3]; absence of an abrasion
  Glucose levels after insulin enema: did not decrease
Yorkshire swine [3]; rectal mucosa with abrasion
  Time to decrement in serum glucose after administration: 20 to 30 min
Yorkshire swine [3]; rectal mucosa with abrasion, baseline glucose 80-82 mg/dL
  Serum glucose level after insulin enema: 60 mg/dL
Yorkshire swine [4]; colon, 20 units, microneedle prototype, one experiment
  Hypoglycemic response (blood glucose versus post-injection time): hypoglycemic response
Yorkshire swine [4]; duodenum, 10 units, Carr-Locke needle, one experiment
  Hypoglycemic response (blood glucose versus post-injection time): hypoglycemic response
Yorkshire swine [4]; insulin injections, stomach, duodenum
  Time to hypoglycemic response after administration: 20 to 40 min
Yorkshire swine [4]; insulin release without the use of needles (control, 10 units)
  Hypoglycemic response: did not induce a hypoglycemic (low glucose) response
Yorkshire swine [4]; stomach (transgastric), 10 units, Carr-Locke needle, 3 separate experiments
  Hypoglycemic response (blood glucose versus post-injection time): hypoglycemic response
